Literature values, collected in patent EP4574138A1, “A TABLET COMPOSITION COMPRISING IVACAFTOR” (Sanovel Ilac Sanayi Ve Ticaret Anonim Sirketi, priority 2023, dated 2025).

Conditions: background description of the drug substance

CC(C)(C)c1cc(C(C)(C)C)c(NC(=O)c2c[nH]c3ccccc3c2=O)cc1O [Ivacaftor, N-(2,4-di-tert-butyl-5-hydroxyphenyl)-1,4-dihydro-4-oxoquinoline-3-carboxamide]
solubility in water (practically insoluble in water): < 0.05 microgram/mL
